Laboratory results taken from the supplement of paper PMC10627819.

Experiments:
Experiment in all cases: Bliss interaction score (quartile over a dose matrix) (fitness difference); higher = more antagonism (negative = synergy)
S. aureus DSM 20231 = test system: S. aureus DSM 20231
Procedure, shortened: (§1)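 Combination data were used to infer fitness under each single drug. Fitness is the OD595 at entry into stationary phase divided by the robust mean of the plate's no-drug wells, with a cap of 1. The Bliss score is the observed minus the expected product fitness, summarised by quartiles over technical, biological and donor/recipient replicates.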

S. pneumoniae D39V = test system: S. pneumoniae D39V
Procedure, shortened: as §1

B. subtilis 168 = test system: B. subtilis 168
Procedure, shortened: as §1

S. aureus Newman = test system: S. aureus Newman
Procedure, shortened: as §1
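Note: first quartile when negative (synergy) and third quartile when positive (antagonism).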

With `CCCCCCCCCC(=O)N[C@@H](Cc1c[nH]c2ccccc12)C(=O)N[C@H](CC(N)=O)C(=O)N[C@@H](CC(=O)O)C(=O)N[C@@H]1C(=O)NCC(=O)N[C@@H](CCCN)C(=O)N[C@@H](CC(=O)O)C(=O)N[C@H](C)C(=O)N[C@@H](CC(=O)O)C(=O)NCC(=O)N[C@H](CO)C(=O)N[C@@H]([C@H](C)CC(=O)O)C(=O)N[C@@H](CC(=O)c2ccccc2N)C(=O)O[C@@H]1C` [Daptomycin] + CO[C@@]12[C@H](COC(N)=O)C3=C(C(=O)C(C)=C(N)C3=O)N1C[C@@H]1N[C@@H]12 [MitomycinC] the Bliss interaction score (S. aureus DSM 20231) was 0.0739, the Bliss interaction score (S. pneumoniae D39V) was -0.0769 and the Bliss interaction score (B. subtilis 168) was 0.0997. It also gave a Bliss interaction score (S. aureus Newman) of -0.0398.

`Cn1nnc(-c2ccc(-c3ccc(N4C[C@H](CO)OC4=O)cc3F)cn2)n1` [Tedizolid] + CC[C@H]1OC(=O)[C@H](C)C(=O)[C@H](C)[C@@H](O[C@@H]2O[C@H](C)C[C@H](N(C)C)[C@H]2O)[C@](C)(OC)C[C@@H](C)C(=O)[C@H](C)[C@H]2N(CCCCn3cnc(-c4cccnc4)c3)C(=O)O[C@]12C [Telithromycin] showed a Bliss interaction score (S. aureus DSM 20231) of -0.0684, a Bliss interaction score (S. pneumoniae D39V) of -0.0527 and a Bliss interaction score (B. subtilis 168) of -0.0463. It also gave a Bliss interaction score (S. aureus Newman) of -0.0897.

With `CCCCCCCCCC(=O)N[C@@H](Cc1c[nH]c2ccccc12)C(=O)N[C@H](CC(N)=O)C(=O)N[C@@H](CC(=O)O)C(=O)N[C@@H]1C(=O)NCC(=O)N[C@@H](CCCN)C(=O)N[C@@H](CC(=O)O)C(=O)N[C@H](C)C(=O)N[C@@H](CC(=O)O)C(=O)NCC(=O)N[C@H](CO)C(=O)N[C@@H]([C@H](C)CC(=O)O)C(=O)N[C@@H](CC(=O)c2ccccc2N)C(=O)O[C@@H]1C` [Daptomycin] + CC[C@H]1OC(=O)[C@H](C)C(=O)[C@H](C)[C@@H](O[C@@H]2O[C@H](C)C[C@H](N(C)C)[C@H]2O)[C@](C)(OC)C[C@@H](C)C(=O)[C@H](C)[C@H]2N(CCCCn3cnc(-c4cccnc4)c3)C(=O)O[C@]12C [Telithromycin] the Bliss interaction score (S. aureus DSM 20231) was 0.0926, the Bliss interaction score (S. pneumoniae D39V) was -0.0436 and the Bliss interaction score (B. subtilis 168) was 0.0516. The Bliss interaction score (S. aureus Newman) was 0.0361.

For `Cn1nnc(-c2ccc(-c3ccc(N4C[C@H](CO)OC4=O)cc3F)cn2)n1` [Tedizolid] + COc1cc(Cc2cnc(N)nc2N)cc(OC)c1OC [Trimethoprim], the Bliss interaction score (S. aureus DSM 20231) was 0.215, the Bliss interaction score (S. pneumoniae D39V) was -0.0785 and the Bliss interaction score (B. subtilis 168) was 0.0776. The Bliss interaction score (S. aureus Newman) was 0.136.

`CN(C)C(=O)C(CCN1CCC(O)(c2ccc(Cl)cc2)CC1)(c1ccccc1)c1ccccc1` [Loperamide] + CC1(C)S[C@@H]2[C@H](NC(=O)Cc3ccccc3)C(=O)N2[C@H]1C(=O)O [PenicillinG] showed a Bliss interaction score (S. aureus DSM 20231) of -0.14, a Bliss interaction score (S. pneumoniae D39V) of -0.249 and a Bliss interaction score (B. subtilis 168) of 0.0464. The Bliss interaction score (S. aureus Newman) was -0.068.

`CO/N=C(\C(=O)N[C@@H]1C(=O)N2C(C(=O)[O-])=C(C[N+]3(C)CCCC3)CS[C@H]12)c1csc(N)n1` [Cefepime] + N[C@@H]1CONC1=O [CycloserineD] gave a Bliss interaction score (S. aureus DSM 20231) of 0.0932, a Bliss interaction score (S. pneumoniae D39V) of 0.0926 and a Bliss interaction score (B. subtilis 168) of 0.0718. For the same compound, the Bliss interaction score (S. aureus Newman) was -0.0561.

Work on `CC1(C)S[C@@H]2[C@H](NC(=O)[C@H](N)c3ccc(O)cc3)C(=O)N2[C@H]1C(=O)O` [Amoxicillin] + CC(=O)O[C@H]1C[C@@]2(C)[C@@H](C[C@@H](O)[C@H]3[C@@]4(C)CC[C@@H](O)[C@@H](C)[C@@H]4CC[C@@]32C)/C1=C(\CCC=C(C)C)C(=O)O [Fusidic acid] yielded a Bliss interaction score (S. aureus DSM 20231) of 0.0361, a Bliss interaction score (S. pneumoniae D39V) of 0.143 and a Bliss interaction score (B. subtilis 168) of 0.0608. For the same compound, the Bliss interaction score (S. aureus Newman) was -0.0375.

In the case of `C[C@H]1COc2c(N3CCN(C)CC3)c(F)cc3c(=O)c(C(=O)O)cn1c23` [Levofloxacin] + Oc1cc(Cl)ccc1Oc1ccc(Cl)cc1Cl [Triclosan], the Bliss interaction score (S. aureus DSM 20231) is reported as -0.0551, the Bliss interaction score (S. pneumoniae D39V) is reported as 0.054 and the Bliss interaction score (B. subtilis 168) is reported as 0.0373. For the same compound, the Bliss interaction score (S. aureus Newman) was -0.0181.

`CO/N=C(\C(=O)N[C@@H]1C(=O)N2C(C(=O)[O-])=C(C[N+]3(C)CCCC3)CS[C@H]12)c1csc(N)n1` [Cefepime] + CC[C@H]1OC(=O)[C@H](C)[C@@H](O[C@H]2C[C@@](C)(OC)[C@@H](O)[C@H](C)O2)[C@H](C)[C@@H](O[C@@H]2O[C@H](C)C[C@H](N(C)C)[C@H]2O)[C@](C)(OC)C[C@@H](C)C(=O)[C@H](C)[C@@H](O)[C@]1(C)O [Clarithromycin] was tested, and the Bliss interaction score (S. aureus DSM 20231) was 0.128, the Bliss interaction score (S. pneumoniae D39V) was 0.07 and the Bliss interaction score (B. subtilis 168) was 0.0395. For the same compound, the Bliss interaction score (S. aureus Newman) was 0.0613.

Work on `CO/N=C(\C(=O)N[C@@H]1C(=O)N2C(C(=O)[O-])=C(C[N+]3(C)CCCC3)CS[C@H]12)c1csc(N)n1` [Cefepime] + CO/N=C(\C(=O)N[C@@H]1C(=O)N2C(C(=O)O)=C(COC(C)=O)CS[C@H]12)c1csc(N)n1 [Cefotaxime] yielded a Bliss interaction score (S. aureus DSM 20231) of 0.0767, a Bliss interaction score (S. pneumoniae D39V) of 0.0698 and a Bliss interaction score (B. subtilis 168) of 0.0354. The Bliss interaction score (S. aureus Newman) was 0.0764.

Work on `CC1(C)S[C@@H]2[C@H](NC(=O)[C@H](N)c3ccc(O)cc3)C(=O)N2[C@H]1C(=O)O` [Amoxicillin] + O=C(O)[C@H]1/C(=C/CO)O[C@@H]2CC(=O)N21 [Clavulanic] yielded a Bliss interaction score (S. aureus DSM 20231) of -0.114, a Bliss interaction score (S. pneumoniae D39V) of -0.0705 and a Bliss interaction score (B. subtilis 168) of -0.152. The Bliss interaction score (S. aureus Newman) was -0.117.

In the case of `CCCCCCCCCC(=O)N[C@@H](Cc1c[nH]c2ccccc12)C(=O)N[C@H](CC(N)=O)C(=O)N[C@@H](CC(=O)O)C(=O)N[C@@H]1C(=O)NCC(=O)N[C@@H](CCCN)C(=O)N[C@@H](CC(=O)O)C(=O)N[C@H](C)C(=O)N[C@@H](CC(=O)O)C(=O)NCC(=O)N[C@H](CO)C(=O)N[C@@H]([C@H](C)CC(=O)O)C(=O)N[C@@H](CC(=O)c2ccccc2N)C(=O)O[C@@H]1C` [Daptomycin] + CC(=O)O[C@H]1C[C@@]2(C)[C@@H](C[C@@H](O)[C@H]3[C@@]4(C)CC[C@@H](O)[C@@H](C)[C@@H]4CC[C@@]32C)/C1=C(\CCC=C(C)C)C(=O)O [Fusidic acid], the Bliss interaction score (S. aureus DSM 20231) is reported as 0.0265, the Bliss interaction score (S. pneumoniae D39V) is reported as -0.109 and the Bliss interaction score (B. subtilis 168) is reported as 0.0625. For the same compound, the Bliss interaction score (S. aureus Newman) was -0.0422.

Compound `Cn1nnc(-c2ccc(-c3ccc(N4C[C@H](CO)OC4=O)cc3F)cn2)n1` [Tedizolid] + CN(C)c1cc(NC(=O)CNC(C)(C)C)c(O)c2c1C[C@H]1C[C@H]3[C@H](N(C)C)C(O)=C(C(N)=O)C(=O)[C@@]3(O)C(O)=C1C2=O [Tigecycline] has a Bliss interaction score (S. aureus DSM 20231) of -0.107, a Bliss interaction score (S. pneumoniae D39V) of -0.0764 and a Bliss interaction score (B. subtilis 168) of -0.0434. The Bliss interaction score (S. aureus Newman) was 0.0453.

`CCN(CC)CCOC(=O)c1ccc(N)cc1` [Procaine] + C/C(=C\C(=O)OCCCCCCCCC(=O)O)C[C@@H]1OC[C@H](C[C@@H]2O[C@H]2[C@@H](C)[C@H](C)O)[C@@H](O)[C@H]1O [Pseudomonic acid] gave a Bliss interaction score (S. aureus DSM 20231) of 0.0122, a Bliss interaction score (S. pneumoniae D39V) of -0.0844 and a Bliss interaction score (B. subtilis 168) of 0.0611. The Bliss interaction score (S. aureus Newman) was 0.0207.

`CC1(C)S[C@@H]2[C@H](NC(=O)[C@H](N)c3ccc(O)cc3)C(=O)N2[C@H]1C(=O)O` [Amoxicillin] + CCP(CC)CC.CC(=O)OC[C@@H]1[C@H]([C@@H]([C@H]([C@@H](O1)[S-])OC(=O)C)OC(=O)C)OC(=O)C.[Au+] [Auranofin] gave a Bliss interaction score (S. aureus DSM 20231) of 0.0373, a Bliss interaction score (S. pneumoniae D39V) of 0.178 and a Bliss interaction score (B. subtilis 168) of -0.0508. The Bliss interaction score (S. aureus Newman) was -0.0817.

In the case of `CC1(C)S[C@@H]2[C@H](NC(=O)[C@H](N)c3ccc(O)cc3)C(=O)N2[C@H]1C(=O)O` [Amoxicillin] + CC[C@H]1OC(=O)[C@H](C)C(=O)[C@H](C)[C@@H](O[C@@H]2O[C@H](C)C[C@H](N(C)C)[C@H]2O)[C@](C)(OC)C[C@@H](C)C(=O)[C@H](C)[C@H]2N(CCCCn3cnc(-c4cccnc4)c3)C(=O)O[C@]12C [Telithromycin], the Bliss interaction score (S. aureus DSM 20231) is reported as -0.0292, the Bliss interaction score (S. pneumoniae D39V) is reported as 0.0336 and the Bliss interaction score (B. subtilis 168) is reported as -0.0851. For the same compound, the Bliss interaction score (S. aureus Newman) was -0.0609.

`CCN(CC)CCOC(=O)c1ccc(N)cc1` [Procaine] + CC[C@H]1OC(=O)[C@H](C)C(=O)[C@H](C)[C@@H](O[C@@H]2O[C@H](C)C[C@H](N(C)C)[C@H]2O)[C@](C)(OC)C[C@@H](C)C(=O)[C@H](C)[C@H]2N(CCCCn3cnc(-c4cccnc4)c3)C(=O)O[C@]12C [Telithromycin] was tested, and the Bliss interaction score (S. aureus DSM 20231) was -0.0287, the Bliss interaction score (S. pneumoniae D39V) was 0.0708 and the Bliss interaction score (B. subtilis 168) was -0.0224. It also gave a Bliss interaction score (S. aureus Newman) of 0.0289.

`CC1(C)S[C@@H]2[C@H](NC(=O)[C@H](N)c3ccc(O)cc3)C(=O)N2[C@H]1C(=O)O` [Amoxicillin] + CO[C@@H]1[C@@H](OC(N)=O)[C@@H](O)[C@H](Oc2ccc3c(O)c(NC(=O)c4ccc(O)c(CC=C(C)C)c4)c(=O)oc3c2C)OC1(C)C [Novobiocin] showed a Bliss interaction score (S. aureus DSM 20231) of 0.0568, a Bliss interaction score (S. pneumoniae D39V) of 0.125 and a Bliss interaction score (B. subtilis 168) of 0.0931. It also gave a Bliss interaction score (S. aureus Newman) of -0.0655.

`CO/N=C(\C(=O)N[C@@H]1C(=O)N2C(C(=O)[O-])=C(C[N+]3(C)CCCC3)CS[C@H]12)c1csc(N)n1` [Cefepime] + CCC[C@@H]1C[C@@H](C(=O)N[C@@H]([C@H]2O[C@H](SC)[C@H](O)[C@@H](O)[C@H]2O)[C@H](C)Cl)N(C)C1 [Clindamycin] showed a Bliss interaction score (S. aureus DSM 20231) of 0.0679, a Bliss interaction score (S. pneumoniae D39V) of 0.162 and a Bliss interaction score (B. subtilis 168) of 0.0651. For the same compound, the Bliss interaction score (S. aureus Newman) was 0.0778.
